We go through 38 molecules from ChEMBL document CHEMBL4483862, “Open-source discovery of chemical leads for next-generation chemoprotective antimalarials” (2018).

Usually IC50 stands for the concentration at which inhibition is half-maximal. For orientation: IC90 means the concentration at which the effect reaches the 90% level.

For this assay, the system named is Plasmodium berghei. The assay can be described thus: Luciferase/luciferin-expressing antifolate-resistant parasites were used to infect a culture of HepG2 cells that were pre-incubated with compounds. Infected hepatocytes emit light due to the luciferase reaction. Assay results are presented as the percent inhibition of light emission compared to control. […]. Particulars: sporozoite; for IC90: read-out: LUCIFERASE INFECTION ASSAY - IC90. Type of assay: functional.

[1] abbreviates: read-out: LUCIFERASE INFECTION ASSAY - IC50.

Consider `O=C(NNC(=O)c1cc(F)c(F)c(F)c1F)c1ccc(COc2cccc3cccnc23)cc1`, for which the IC90 was over 10 µM. For the same molecule, the IC50 under setting [1] is over 10 µM.
`Cn1cccc1C(=O)N1CC2ON=C(c3ccc(F)cc3)C2C1` (stereo unspecified): the IC90 was over 10 µM. Further, the IC50 under setting [1] is over 10 µM.
Consider `C=CCn1c(SC(C(=O)c2c[nH]c3ccccc23)c2ccccc2)nc2sc(C)c(C)c2c1=O` (stereo unspecified), for which the IC90 was determined as 3.74 µM. In addition, for the setting “FFLUC_HILL_SLOPE 2.34, FFLUC_R_SQUARED 0.404, HEPG2TOX_HILL_SLOPE 0.632, HEPG2TOX_R_SQUARED 0.765, PBLUC_HILL_SLOPE 19.2, PBLUC_R_SQUARED 0.592, read-out: LUCIFERASE INFECTION ASSAY - IC50”, the half-maximal inhibitory concentration (IC50) amounted to 3.33 µM.
In the case of `O=C(Nc1ccc(Cl)c(C(F)(F)F)c1)C(c1ccccc1)N1CC=C(c2ccccc2)CC1` (stereo unspecified), the IC90 was over 10 µM. The IC50 (PBLUC_HILL_SLOPE 3.35, PBLUC_R_SQUARED 0.119, read-out: LUCIFERASE INFECTION ASSAY - IC50) came to 7.2 µM.
Regarding `CC(C)(C)c1ccc(C(=O)Nc2ccc(Oc3cccnc3)nc2)cc1`, the IC90 is over 9.5 µM. The IC50 (HEPG2TOX_HILL_SLOPE 1.03, HEPG2TOX_R_SQUARED 0.91, PBLUC_HILL_SLOPE 1.13, PBLUC_R_SQUARED 0.427, read-out: LUCIFERASE INFECTION ASSAY - IC50) was found to be 3.06 µM.
For the molecule `Cc1cc2ncc(-c3ccnc(SCC(=O)Nc4cccc(C(F)(F)F)c4)n3)c(C)n2n1`, the IC90 was over 7.2 µM. In addition, under setting [1], the IC50 is over 7.2 µM.
On to `Cc1ccc(C(=O)C(C)Oc2ccc(NC(=O)c3cccs3)cc2)cc1` (stereo unspecified), for which the IC90 turned out to be 1.47 µM. Moreover, the concentration for half-maximal inhibition (IC50) (PBLUC_HILL_SLOPE 1.89, PBLUC_R_SQUARED 0.795, read-out: LUCIFERASE INFECTION ASSAY - IC50) turned out to be 0.461 µM.
In the case of `CO/N=C1\CCCc2c(C(=O)N/N=C/c3ccccc3Cl)sc(SC)c21`, the IC90 worked out at 1.81 µM. Moreover, the IC50 (FFLUC_HILL_SLOPE 19.7, FFLUC_R_SQUARED 0.147, HEPG2TOX_HILL_SLOPE 0.857, HEPG2TOX_R_SQUARED 0.906, PBLUC_HILL_SLOPE 1.47, PBLUC_R_SQUARED 0.897, read-out: LUCIFERASE INFECTION ASSAY - IC50) stood at 0.406 µM.
Take `O=[N+]([O-])c1ccc(N2CCN(c3ncccc3C(F)(F)F)CC2)nc1`: the IC90 was over 9.34 µM. Further, the IC50 (HEPG2TOX_HILL_SLOPE 6.77, HEPG2TOX_R_SQUARED 0.465, read-out: LUCIFERASE INFECTION ASSAY - IC50) was over 9.34 µM.
For `CN(C)c1cccc(NCC2(c3ccnc(-c4ccccc4Cl)c3)CC2)c1`, the IC90 is over 10 µM. Besides, under setting [1], the IC50 was over 10 µM.
As for `CC(C)Cc1ccc(C(Nc2ccc3nnnn3n2)C(C)C)cc1` (stereo unspecified), the IC90 worked out at 3.82 µM. Besides, for the setting “PBLUC_HILL_SLOPE 13.1, PBLUC_R_SQUARED 0.631, read-out: LUCIFERASE INFECTION ASSAY - IC50”, the IC50 is 3.23 µM.
For the molecule `COc1ccc(C(C#N)=C2C=CC(=NO)C=C2)cc1`, the IC90 is over 13.1 µM. Moreover, the IC50 (FFLUC_HILL_SLOPE 2.5, FFLUC_R_SQUARED 0.687, PBLUC_HILL_SLOPE 18.8, PBLUC_R_SQUARED 0.229, read-out: LUCIFERASE INFECTION ASSAY - IC50) is 12.9 µM.
As for `CC(C)c1ccccc1N(C(=O)C1CCC1)c1nc2ccccc2s1`, the IC90 was over 10 µM. Besides, the IC50 under setting [1] was over 10 µM.
For the molecule `CC(=O)Nc1ccc(-c2cnc3ccc(-c4cccs4)nn23)cc1`, the IC90 is 2.75 µM. Also, where the note is “HEPG2TOX_HILL_SLOPE 1.84, HEPG2TOX_R_SQUARED 0.871, PBLUC_HILL_SLOPE 5.5, PBLUC_R_SQUARED 0.751, read-out: LUCIFERASE INFECTION ASSAY - IC50”, the IC50 came to 1.84 µM.
Regarding `NS(=O)(=O)c1ccc(CCNc2nn3c(-c4ccc(F)c(Cl)c4)cnc3s2)cc1`, the 90% effect concentration (IC90) was over 7.3 µM. Further, for the setting “FFLUC_HILL_SLOPE 96, FFLUC_R_SQUARED 0.344, HEPG2TOX_HILL_SLOPE 2.59, HEPG2TOX_R_SQUARED 0.44, read-out: LUCIFERASE INFECTION ASSAY - IC50”, the IC50 is over 7.3 µM.
Regarding `Cc1c(C)n(CCCO)c2ncn3nc(-c4ccc(Cl)cc4)nc3c12`, the IC90 is over 9.27 µM. The IC50 under setting [1] was over 9.27 µM.
With `CN(CC(=O)Nc1cccc(F)c1)C(=O)c1csc(COc2ccc(Cl)cc2)n1`, the IC90 stood at 6.38 µM. In addition, the IC50 (HEPG2TOX_HILL_SLOPE 11.6, HEPG2TOX_R_SQUARED 0.266, PBLUC_HILL_SLOPE 151, PBLUC_R_SQUARED 0.192, read-out: LUCIFERASE INFECTION ASSAY - IC50) is 6.29 µM.
Regarding `Clc1ccc2c(NCc3coc(-c4cccs4)n3)ncnc2c1`, the IC90 stood at 6.02 µM. In addition, the IC50 (HEPG2TOX_HILL_SLOPE 0.478, HEPG2TOX_R_SQUARED 0.927, PBLUC_HILL_SLOPE 2.76, PBLUC_R_SQUARED 0.49, read-out: LUCIFERASE INFECTION ASSAY - IC50) amounted to 2.71 µM.
With `C/C=C/c1ccc(OCC(=O)NCc2ccc(S(N)(=O)=O)cc2)c(OC)c1`, the IC90 was over 10 µM. In addition, under setting [1], the IC50 was over 10 µM.
In the case of `S=c1n(CN2CCN(c3ccccc3Cl)CC2)nc(-c2cccs2)n1Cc1ccccc1`, the IC90 came out at 0.362 µM. Also, the 50% inhibitory concentration (IC50) (PBLUC_HILL_SLOPE 3, PBLUC_R_SQUARED 0.854, read-out: LUCIFERASE INFECTION ASSAY - IC50) is 0.174 µM.
With `COC(=O)c1ccc(/C=C/C(=O)OCC(=O)C(C#N)=C2Nc3ccccc3N2)cc1`, the IC90 is over 10 µM. Moreover, the IC50 under setting [1] was over 10 µM.
Regarding `CC(=O)c1cccc(-c2cnc3cnc(-c4cccc(C(N)=O)c4)cn23)c1`, the IC90 was over 9.26 µM. Moreover, the IC50 (PBLUC_HILL_SLOPE 1.58, PBLUC_R_SQUARED 0.572, read-out: LUCIFERASE INFECTION ASSAY - IC50) worked out at 3.69 µM.
Take `COC(=O)c1sccc1Oc1ccc(C(F)(F)F)cc1NS(=O)(=O)c1cc(C(F)(F)F)cc(C(F)(F)F)c1`: the concentration for an effect of 90% (IC90) was 3.04 µM. For the same molecule, the IC50 (HEPG2TOX_HILL_SLOPE 17.5, HEPG2TOX_R_SQUARED 0.823, PBLUC_HILL_SLOPE 4.85, PBLUC_R_SQUARED 0.307, read-out: LUCIFERASE INFECTION ASSAY - IC50) was 1.93 µM.
As to `COc1ccc(S(=O)(=O)Nc2ccccc2C(=O)NNC(=O)c2ccccc2O)cc1`, the IC90 stood at 4.69 µM. Moreover, the IC50 (HEPG2TOX_HILL_SLOPE 4.15, HEPG2TOX_R_SQUARED 0.834, PBLUC_HILL_SLOPE 17, PBLUC_R_SQUARED 0.564, read-out: LUCIFERASE INFECTION ASSAY - IC50) amounted to 4.12 µM.
For the molecule `CCCCN(C(=O)CSc1nnc(-c2ccc(OC)cc2)n1C(C)C)c1c(N)n(CCCC)c(=O)[nH]c1=O`, the 90% effect concentration (IC90) was over 10 µM. Besides, under setting [1], the IC50 is over 10 µM.
Consider `O=[N+]([O-])c1ccsc1Oc1ccc(Cl)cc1Cl`, for which the IC90 is over 11.4 µM. In addition, under setting [1], the half-maximal inhibitory concentration (IC50) was over 11.4 µM.
For the molecule `O=C(NC(CN1CCCC1)c1ccccc1)c1ccc(N2CCCC2=O)cc1` (stereo unspecified), the IC90 was over 10 µM. Also, the IC50 (HEPG2TOX_HILL_SLOPE 1.34, HEPG2TOX_R_SQUARED 0.227, PBLUC_HILL_SLOPE 0.905, PBLUC_R_SQUARED 0.0409, read-out: LUCIFERASE INFECTION ASSAY - IC50) was over 10 µM.
For the molecule `CC(C(=O)Nc1ccc(S(N)(=O)=O)cc1)N1CCC(CCc2ccccc2)CC1` (stereo unspecified), the IC90 is over 10 µM. In addition, the IC50 (HEPG2TOX_HILL_SLOPE 3.11, HEPG2TOX_R_SQUARED 0.733, PBLUC_HILL_SLOPE 2.39, PBLUC_R_SQUARED 0.628, read-out: LUCIFERASE INFECTION ASSAY - IC50) turned out to be 5.36 µM.
With `CCOc1ccc(S(=O)(=O)N(Cc2nnc(-c3cccs3)o2)c2ccccc2OC)cc1`, the IC90 was over 10 µM. Under “HEPG2TOX_HILL_SLOPE 1.67, HEPG2TOX_R_SQUARED 0.357, PBLUC_HILL_SLOPE 2.18, PBLUC_R_SQUARED 0.1, read-out: LUCIFERASE INFECTION ASSAY - IC50”, the IC50 stood at 6.59 µM.
For `C=S(=O)(NS(=O)(=O)c1ccc2c(c1)CCN2C(C)=O)c1ccc(C)cc1` (stereo unspecified), the IC90 was over 8.41 µM. The IC50 under setting [1] is over 8.41 µM.
As to `Cc1ccccc1C(=O)N1CCC(C(=O)Oc2ccc(Cl)c3ccccc23)CC1`, the 90% effect concentration (IC90) is over 10 µM. For the same molecule, the IC50 under setting [1] was over 10 µM.
For the molecule `N#C/C(=C\c1ccc(OC(=O)c2cccnc2)cc1)c1nnc2n1CCCCC2`, the IC90 is over 10 µM. For the same molecule, the IC50 under setting [1] was over 10 µM.
`Cc1cc2occ(CC(=O)Nc3sccc3C(N)=O)c2cc1C(C)C`: the IC90 is 4.1 µM. The IC50 (HEPG2TOX_HILL_SLOPE 3.18, 2.30, HEPG2TOX_R_SQUARED 0.297, 0.732, PBLUC_HILL_SLOPE 15.1, PBLUC_R_SQUARED 0.252, read-out: LUCIFERASE INFECTION ASSAY - IC50) is 3.55 µM.
With `O=C(Nc1ccc(CNc2ncnc3cc(Cl)ccc23)cc1)C1CC1`, the IC90 was found to be 1.46 µM. The IC50 under setting [1] is 0.544 µM.
For the molecule `Cc1cc(C)c(C(=O)CSc2cc(C)c3cccc(C)c3n2)c(C)c1`, the IC90 is over 10 µM. Besides, the half-maximal inhibitory concentration (IC50) (FFLUC_HILL_SLOPE 3.04, FFLUC_R_SQUARED 0.417, HEPG2TOX_HILL_SLOPE 2.16, HEPG2TOX_R_SQUARED 0.191, read-out: LUCIFERASE INFECTION ASSAY - IC50) was over 10 µM.
Turning to `O=C(NCCc1c[nH]c2ccccc12)c1ccc2c(c1)CC(c1ccccc1)OC2=O` (stereo unspecified), the IC90 was over 10 µM. Under setting [1], the IC50 was over 10 µM.
Consider `COc1ccc(-c2cc(C(=O)NNC(=O)CC(C)C)[nH]n2)cc1`, for which the IC90 is over 10 µM. Besides, under setting [1], the IC50 is over 10 µM.
Regarding `COc1ccc(-c2cnc3cnc(-c4ccc5c(ccn5C)c4)cn23)cn1`, the IC90 stood at 1.22 µM. Also, the IC50 (HEPG2TOX_HILL_SLOPE 1.17, HEPG2TOX_R_SQUARED 0.992, PBLUC_HILL_SLOPE 12.5, PBLUC_R_SQUARED 0.775, read-out: LUCIFERASE INFECTION ASSAY - IC50) was 1.02 µM.
